Data published in patent US12180194B2, “Multi-aziridine compound” (Covestro (Netherlands) B.V., priority 2018, dated 2024).

Tests used:
Bscl2-GFP = test: ToxTracker genotoxicity assay, Bscl2-GFP reporter induction; details: for Genotoxicity test, With S9 rat liver extract, Bscl 2, 10 / Genotoxicity test, Without S9 rat liver extract, Bscl 2, 10: GFP induction vs vehicle at 10% cytotoxicity; for Genotoxicity test, With S9 rat liver extract, Bscl 2, 10 / Genotoxicity test, With S9 rat liver extract, Bscl 2, 25 / Genotoxicity test, With S9 rat liver extract, Bscl 2, 50: 3 h exposure with S9, 24 h recovery; for Genotoxicity test, Without S9 rat liver extract, Bscl 2, 10 / Genotoxicity test, Without S9 rat liver extract, Bscl 2, 25 / Genotoxicity test, Without S9 rat liver extract, Bscl 2, 50: 24 h exposure, no S9; for Genotoxicity test, With S9 rat liver extract, Bscl 2, 25 / Genotoxicity test, Without S9 rat liver extract, Bscl 2, 25: GFP induction vs vehicle at 25% cytotoxicity; for Genotoxicity test, Without S9 rat liver extract, Bscl 2, 50 / Genotoxicity test, With S9 rat liver extract, Bscl 2, 50: GFP induction vs vehicle at 50% cytotoxicity; for Genotoxicity test, Bscl 2 induction level: fold induction
Rtkn-GFP = test: ToxTracker genotoxicity assay, Rtkn-GFP reporter induction; details: for Genotoxicity test, With S9 rat liver extract, Rtkn, 10 / Genotoxicity test, Without S9 rat liver extract, Rtkn, 10: GFP induction vs vehicle at 10% cytotoxicity; for Genotoxicity test, With S9 rat liver extract, Rtkn, 10 / Genotoxicity test, With S9 rat liver extract, Rtkn, 25 / Genotoxicity test, With S9 rat liver extract, Rtkn, 50: 3 h exposure with S9, 24 h recovery; for Genotoxicity test, Without S9 rat liver extract, Rtkn, 10 / Genotoxicity test, Without S9 rat liver extract, Rtkn, 25 / Genotoxicity test, Without S9 rat liver extract, Rtkn, 50: 24 h exposure, no S9; for Genotoxicity test, With S9 rat liver extract, Rtkn, 25 / Genotoxicity test, Without S9 rat liver extract, Rtkn, 25: GFP induction vs vehicle at 25% cytotoxicity; for Genotoxicity test, With S9 rat liver extract, Rtkn, 50 / Genotoxicity test, Without S9 rat liver extract, Rtkn, 50: GFP induction vs vehicle at 50% cytotoxicity; for Genotoxicity test, Rtkn induction level: fold induction
[1] = with S9 rat liver extract, concentration 10 (10% cytotoxicity)
[2] = with S9 rat liver extract, concentration 25 (25% cytotoxicity)
[3] = with S9 rat liver extract, concentration 50 (50% cytotoxicity)
[4] = without S9 rat liver extract, concentration 10 (10% cytotoxicity)
[5] = without S9 rat liver extract, concentration 25 (25% cytotoxicity)
[6] = without S9 rat liver extract, concentration 50 (50% cytotoxicity)

Structure (SMILES)	Genotoxicity test, With S9 rat liver extract, Bscl 2, 10 (Bscl2-GFP)	Genotoxicity test, Without S9 rat liver extract, Bscl 2, 10 (Bscl2-GFP)	Genotoxicity test, With S9 rat liver extract, Bscl 2, 25 (Bscl2-GFP)	Genotoxicity test, Without S9 rat liver extract, Bscl 2, 25 (Bscl2-GFP)	Genotoxicity test, Without S9 rat liver extract, Bscl 2, 50 (Bscl2-GFP)	Genotoxicity test, With S9 rat liver extract, Rtkn, 10 (Rtkn-GFP)	Genotoxicity test, Without S9 rat liver extract, Rtkn, 10 (Rtkn-GFP)	Genotoxicity test, With S9 rat liver extract, Rtkn, 25 (Rtkn-GFP)	Genotoxicity test, Without S9 rat liver extract, Rtkn, 25 (Rtkn-GFP)	Genotoxicity test, With S9 rat liver extract, Rtkn, 50 (Rtkn-GFP)	Genotoxicity test, Without S9 rat liver extract, Rtkn, 50 (Rtkn-GFP)	Genotoxicity test, With S9 rat liver extract, Bscl 2, 50 (Bscl2-GFP)	other results
CCCCOCC(CN1CC1C)OC(=O)NCCCCCCn1c(=O)n(CCCCCCNC(=O)OC(COCCCC)CN2CC2C)c(=O)n(CCCCCCNC(=O)OC(COCCCC)CN2CC2C)c1=O (stereo not drawn) [Ex. 14]	1.0 fold	1.1 fold	1.0 fold	1.1 fold	1.1 fold	0.9 fold	0.8 fold	0.8 fold	0.8 fold	0.6 fold	0.6 fold		
CCCCOCC(CN1CC1C)OC(=O)NCCCCCC/N=c1\oc(=O)n(CCCCCCNC(=O)OC(COCCCC)CN2CC2C)c(=O)n1CCCCCCNC(=O)OC(COCCCC)CN1CC1C (stereo not drawn) [Ex. 15]	1.0 fold	1.1 fold		1.1 fold	0.9 fold	1.1 fold	1.1 fold		1.0 fold		0.9 fold		
CC1CN1C1CCCCC1OC(=O)NCCCCCCn1c(=O)n(CCCCCCNC(=O)OC2CCCCC2N2CC2C)c(=O)n(CCCCCCNC(=O)OC2CCCCC2N2CC2C)c1=O (stereo not drawn) [Ex. 19]	1.1 fold	1.1 fold	1.2 fold	1.3 fold		1.2 fold	1.2 fold	1.3 fold	1.3 fold	1.3 fold		1.2 fold	
CCCCC(CC)COCC(CN1CC1C)OC(=O)NCCCCCCn1c(=O)n(CCCCCCNC(=O)OC(COCC(CC)CCCC)CN2CC2C)c(=O)n(CCCCCCNC(=O)OC(COCC(CC)CCCC)CN2CC2C)c1=O (stereo not drawn) [Ex. 20]	0.9 fold	1.0 fold	0.8 fold	1.0 fold	0.7 fold	1.0 fold	1.1 fold	1.1 fold	1.3 fold	1.1 fold	1.2 fold	0.7 fold	
Cc1ccccc1OCC(CN1CC1C)OC(=O)NCCCCCCn1c(=O)n(CCCCCCNC(=O)OC(COc2ccccc2C)CN2CC2C)c(=O)n(CCCCCCNC(=O)OC(COc2ccccc2C)CN2CC2C)c1=O (stereo not drawn) [Ex. 21]	1.0 fold	1.1 fold	1.3 fold	1.2 fold	1.6 fold	1.2 fold	1.2 fold	1.4 fold	1.3 fold	1.5 fold	1.5 fold	1.4 fold	
CCCCCCCCCC(=O)OCC(CN1CC1C)OC(=O)NC(C)(C)c1cccc(C(C)(C)NC(=O)OC(COC(=O)CCCCCCCCC)CN2CC2C)c1 (stereo not drawn) [Ex. 22]	1.2 fold	1.0 fold	1.2 fold	1.0 fold	0.9 fold	1.1 fold	1.0 fold	1.1 fold	1.0 fold	1.0 fold	1.0 fold	1.2 fold	
CCCCCCCCCC(=O)OCC(CN1CC1C)OC(=O)NC1CCC(CC2CCC(NC(=O)OC(COC(=O)CCCCCCCCC)CN3CC3C)CC2)CC1 (stereo not drawn) [Ex. 23]	1.1 fold	1.1 fold	1.1 fold	1.2 fold	1.2 fold	1.0 fold	1.1 fold	1.2 fold	1.2 fold	1.2 fold	1.1 fold	1.1 fold	
CCCCCCCCCC(=O)OCC(CN1CC1C)OC(=O)NCCCCCCn1c(=O)n(CCCCCCNC(=O)OC(COC(=O)CCCCCCCCC)CN2CC2C)c(=O)n(CCCCCCNC(=O)OC(COC(=O)CCCCCCCCC)CN2CC2C)c1=O (stereo not drawn) [Ex. 24]	1.0 fold	1.1 fold	1.1 fold	1.2 fold	1.0 fold	1.1 fold	1.1 fold	1.1 fold	1.2 fold	1.2 fold	1.0 fold	1.1 fold	
COCCOCCOCCOCCOCCOCCOCCOCCOCCOCCOCCOCCOCCOCC(CN1CC1C)OC(=O)NCCCCCCn1c(=O)n(CCCCCCNC(=O)OC(COCCOCCOCCOCCOCCOCCOCCOCCOCCOCCOCCOCCOCCOC)CN2CC2C)c(=O)n(CCCCCCNC(=O)OC(COCCOCCOCCOCCOCCOCCOCCOCCOCCOCCOCCOCCOCCOC)CN2CC2C)c1=O (stereo not drawn) [Ex. 29]	1.1 fold	1.1 fold	1.1 fold	1.4 fold	1.4 fold	1.1 fold	1.0 fold	1.1 fold	1.1 fold	1.1 fold	1.1 fold	1.1 fold	
COCCOCCOCCOCCOCCOCCOCCOCCOCCOCCOCCOCCOCCOCCOCCOCCOCCOCCOCCOCCOCCOCCOCCOCCOCCOCC(CN1CC1C)OC(=O)NCCCCCCn1c(=O)n(CCCCCCNC(=O)OC(COCCOCCOCCOCCOCCOCCOCCOCCOCCOCCOCCOCCOCCOCCOCCOCCOCCOCCOCCOCCOCCOCCOCCOCCOCCOC)CN2CC2C)c(=O)n(CCCCCCNC(=O)OC(COCCOCCOCCOCCOCCOCCOCCOCCOCCOCCOCCOCCOCCOCCOCCOCCOCCOCCOCCOCCOCCOCCOCCOCCOCCOC)CN2CC2C)c1=O (stereo not drawn) [Ex. 30]													Genotoxicity test, Bscl 2 induction level (Bscl2-GFP; [1]): 1.0; Genotoxicity test, Bscl 2 induction level (Bscl2-GFP; [2]): 1.5; Genotoxicity test, Bscl 2 induction level (Bscl2-GFP; [3]): 1.8; Genotoxicity test, Bscl 2 induction level (Bscl2-GFP; [4]): 1.0; Genotoxicity test, Bscl 2 induction level (Bscl2-GFP; [5]): 1.3; Genotoxicity test, Bscl 2 induction level (Bscl2-GFP; [6]): 1.6; Genotoxicity test, Rtkn induction level (Rtkn-GFP; [1]): 0.8; Genotoxicity test, Rtkn induction level (Rtkn-GFP; [2]): 0.9; Genotoxicity test, Rtkn induction level (Rtkn-GFP; [3]): 1.0; Genotoxicity test, Rtkn induction level (Rtkn-GFP; [4]): 0.9; Genotoxicity test, Rtkn induction level (Rtkn-GFP; [5]): 0.9; Genotoxicity test, Rtkn induction level (Rtkn-GFP; [6]): 1.0
CCCCOCC(CN1CC1(C)C)OC(=O)NCCCCCCn1c(=O)n(CCCCCCNC(=O)OC(COCCCC)CN2CC2(C)C)c(=O)n(CCCCCCNC(=O)OC(COCCCC)CN2CC2(C)C)c1=O (stereo not drawn) [Ex. 31]													Genotoxicity test, Bscl 2 induction level (Bscl2-GFP; [1]): 1.1; Genotoxicity test, Bscl 2 induction level (Bscl2-GFP; [2]): 1.1; Genotoxicity test, Bscl 2 induction level (Bscl2-GFP; [3]): 1.1; Genotoxicity test, Bscl 2 induction level (Bscl2-GFP; [4]): 1.2; Genotoxicity test, Bscl 2 induction level (Bscl2-GFP; [5]): 1.2; Genotoxicity test, Rtkn induction level (Rtkn-GFP; [1]): 1.2; Genotoxicity test, Rtkn induction level (Rtkn-GFP; [2]): 1.2; Genotoxicity test, Rtkn induction level (Rtkn-GFP; [3]): 1.3; Genotoxicity test, Rtkn induction level (Rtkn-GFP; [4]): 1.2; Genotoxicity test, Rtkn induction level (Rtkn-GFP; [5]): 1.2
CCCCOCC(CN1CC1CC)OC(=O)NCCCCCCn1c(=O)n(CCCCCCNC(=O)OC(COCCCC)CN2CC2CC)c(=O)n(CCCCCCNC(=O)OC(COCCCC)CN2CC2CC)c1=O (stereo not drawn) [Ex. 32]													Genotoxicity test, Bscl 2 induction level (Bscl2-GFP; [1]): 1.1; Genotoxicity test, Bscl 2 induction level (Bscl2-GFP; [2]): 1.1; Genotoxicity test, Bscl 2 induction level (Bscl2-GFP; [3]): 1.1; Genotoxicity test, Bscl 2 induction level (Bscl2-GFP; [4]): 1.1; Genotoxicity test, Bscl 2 induction level (Bscl2-GFP; [5]): 1.2; Genotoxicity test, Bscl 2 induction level (Bscl2-GFP; [6]): 1.3; Genotoxicity test, Rtkn induction level (Rtkn-GFP; [1]): 1.0; Genotoxicity test, Rtkn induction level (Rtkn-GFP; [2]): 1.1; Genotoxicity test, Rtkn induction level (Rtkn-GFP; [3]): 1.1; Genotoxicity test, Rtkn induction level (Rtkn-GFP; [4]): 1.0; Genotoxicity test, Rtkn induction level (Rtkn-GFP; [5]): 1.1; Genotoxicity test, Rtkn induction level (Rtkn-GFP; [6]): 1.1
